Measured values from patent US8669254B2, “Pyridine, pyridazine, pyrimidine or pyrazine carboxamides as HDL-cholesterol raising agents” (Hoffman-La Roche Inc., priority 2010, dated 2014).
Where two headings read alike, the source gives them in different places.

Columns and labels:
human CB1 receptor = target: T1, human CB1 receptor (Homo sapiens, UniProt P21554); test: CB1 receptor affinity ([3H]-CP-55,940 displacement); format: binding; conditions: read-out: CB1 receptor affinity [% inhibition @ 10 μM]
T1 construct: expressed in transfected cells; host or cells: human embryonic kidney (HEK) cells, Semliki Forest Virus system, membrane preparation
Procedure: (§1) The affinity of the compounds of the invention for cannabinoid receptors was determined using membrane preparations of human embryonic kidney (HEK) cells in which the human CB1 receptor is transiently transfected using a Semliki Forest Virus system in conjunction with [3H]-CP-55,940 as radioligand. After incubation of freshly prepared cell membrane preparation with the [^3H]-ligand, with or without addition of compounds of the invention, separation of bound and free ligand was performed by filtration over glass fiber filters. Radioactivity on the filter was measured by scintillation counting.
(§2) The ability of the compounds to displace the radioligand [^3H]-CP-55,940 was measured at a concentration of 10 μM and values provided as [% inhibition @ 10 μM] both for the CB 1 and CB2 receptor assay, The lower % inhibition is, the lower the likelihood of side effects based on CB1 or CB2 receptor inhibition is.

ABCA1 protein = test: Detection of upregulation of ABCA1 protein in cells (ApoA-I binding, high content image analysis); format: cell-based; conditions: THP-1 macrophage cells; for % increase of ABCA1 at 3 μM: compound at 3 μM, 24 hrs; for EC50: ABCA1 protein detection assay
Procedure: The ability of compounds of the invention to increase the level of ABCA1 protein is determined in replicate cultures of THP-1 macrophage cells in 96-well microplates. Cells are plated at an initial density of 100,000 cells/well in 100 μl medium and differentiated to adherent macrophages with the addition of PMA (100 nM) for 68 hrs in 10% fetal bovine serum, 3 μl/L of b-mercaptoethanol, RPMI-1640 medium. Then, cells are incubated with RPMI-1640 medium containing 1% FCS, 25 μg/ml acetylated LDL, for 24 hours at 37°. Following incubation with acetylated LDL, cells are washed twice with 50 μl PBS and incubated with 100 μl of RPMI-1640 medium containing the compound of interest solubilized in DMSO for an additional 24 hrs. The final DMSO concentration in presence of cells is maintained at 0.5%. ApoA-I binding assay using High Content Image Analysis is initiated by replacing with fresh medium, RPMI without Phenol Red, 0.2% BSA containing AlexaFluor®647 labeled ApoA-I for 2 h/37° C./5% CO2. Then, cells are fixed with 4% Formaldehyde in PBS (15 min, RT). Following Nuclei are stained with Hoechst solution (3 μM PBS) and Cytoplasm with Cell Mask Blue (2 μg/ml PBS), 15 min, RT. Finally the stained cells are fixed with a second round of formaldehyde treatment. Fixed stained cells are washed and kept in PBS at 4° C. and can be read immediately until one month after preparation.
The Alexa Fluor 647-labeled Apolipoprotein A-I (20 nM) was prepared as follows: Human recombinant Apolipoprotein A-I (ApoA-I) was exchanged to a buffer of 0.02 M NaHCO3 at pH 8.2 on an NAP desalting column (GE Healthcare) and brought to a concentration to 40 μM (1.13 mg/ml) by adjustment with the same buffer. The ApoA-I was fluorescently labeled by incubation with Alexa Fluor carboxylic acid succimidyl ester (Alexa Fluor 647, Invitrogen A-20006) at a 2:1 molar ratio (Alexa to ApoA-I) for 1 h under shaking at RT). The remaining unconjugated label was removed by buffer exchange to 0.02M NaHCO3 at pH 8.2.
Imaging and data collection were performed on an OPERA confocal microplate imaging reader using a 20× water immersion objective and UV360 or 405 laser to identify the cell nuclei and a 635 laser to identify the fluorescent ApoA-I. Eight fields of view are captured per well. Image capture and analysis was performed with the Acapella software. Background fluorescence detected in control wells without ApoA-I was subtracted.
Using XLfit3 program (ID Business Solutions Ltd. UK), the model 205 for Dose Response One Site is used to calculate the EC50 values. […] Particularly, the compounds of the present invention have EC50 values in a range of 0.1 μM to 3 μM.

human CB2 receptor = target: T2, human CB2 receptor (Homo sapiens, UniProt P34972); test: CB2 receptor affinity ([3H]-CP-55,940 displacement); format: binding; conditions: HEK cell membranes, radioligand [3H]-CP-55,940
T2 construct: expressed in transfected cells; host or cells: human embryonic kidney (HEK) cells, Semliki Forest Virus system, membrane preparation
Procedure: as §1, with “cannabinoid CB2” for “cannabinoid”, “CB2” for “CB1”, “[^3H]-CP-55,940” for “[3H]-CP-55,940”
as §2

[1] = 10 μM, HEK cell membranes, radioligand [3H]-CP-55,940

T2 sequence (P34972 whole entry): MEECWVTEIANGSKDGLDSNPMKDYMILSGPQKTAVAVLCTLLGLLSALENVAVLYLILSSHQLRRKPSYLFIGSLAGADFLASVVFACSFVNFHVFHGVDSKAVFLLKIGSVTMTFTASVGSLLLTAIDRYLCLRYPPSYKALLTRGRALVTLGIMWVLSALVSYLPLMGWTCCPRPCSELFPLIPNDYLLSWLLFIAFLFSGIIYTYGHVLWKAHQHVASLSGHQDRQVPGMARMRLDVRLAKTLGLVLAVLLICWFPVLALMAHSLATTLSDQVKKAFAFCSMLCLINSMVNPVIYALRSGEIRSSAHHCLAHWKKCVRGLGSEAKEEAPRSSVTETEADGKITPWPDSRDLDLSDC
T1 sequence (P21554 whole entry): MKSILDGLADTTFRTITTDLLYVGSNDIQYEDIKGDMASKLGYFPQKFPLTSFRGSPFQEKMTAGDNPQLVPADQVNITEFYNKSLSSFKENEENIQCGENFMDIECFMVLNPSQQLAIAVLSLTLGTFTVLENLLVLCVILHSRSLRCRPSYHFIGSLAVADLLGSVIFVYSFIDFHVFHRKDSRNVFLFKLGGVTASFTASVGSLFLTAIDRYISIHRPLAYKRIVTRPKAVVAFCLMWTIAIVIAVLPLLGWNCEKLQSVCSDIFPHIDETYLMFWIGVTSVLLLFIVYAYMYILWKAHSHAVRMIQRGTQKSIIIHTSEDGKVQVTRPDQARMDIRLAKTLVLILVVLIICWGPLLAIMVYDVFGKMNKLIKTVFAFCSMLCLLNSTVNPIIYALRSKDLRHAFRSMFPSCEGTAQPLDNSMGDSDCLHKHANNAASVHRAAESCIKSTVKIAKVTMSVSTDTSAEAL

SMILES	melting point [°C]	inhibition at 10 µM (human CB1 receptor; [1]) [%]	inhibition at 10 µM (human CB2 receptor) [%]	% increase of ABCA1 at 3 μM (ABCA1 protein) [% @ 3 μM]	EC50 (ABCA1 protein) [nM]	inhibition at 10 µM (human CB1 receptor) [%]
CO/N=C(/CNC(=O)c1cnc(OCC(F)(F)F)c(-c2ccc(Cl)c(Cl)c2)c1)C(F)(F)F [Example 15, 5-(3,4-Dichloro-phenyl)-6-(2,2,2-trifluoro-ethoxy)-N-{3,3,3-trifluoro-2-[(Z)-methoxyimino]-propyl}-nicotinamide]	124 to 126	32	23.2	50.5		
CO/N=C(/CNC(=O)c1ccc(OCC(F)(F)F)c(-c2ccc(Cl)cc2)n1)C(F)(F)F [Example 21, 6-(4-Chloro-phenyl)-5-(2,2,2-trifluoro-ethoxy)-pyridine-2-carboxylic acid {3,3,3-trifluoro-2-[(Z)-methoxyimino]-propyl}-amide]		41	31	50		
O=C(NC/C(=N/OCC(F)(F)F)C1CC1)c1cnc(OCC(F)(F)F)c(-c2ccc(Cl)c(Cl)c2)c1 [Example 22, N-{2-Cyclopropyl-2-[(E/Z)-2,2,2-trifluoro-ethoxyimino]-ethyl}-5-(3,4-dichloro-phenyl)-6-(2,2,2-trifluoro-ethoxy)-nicotinamide]		36	9	74		
CO/N=C(/CNC(=O)c1cc(-c2ccc(Cl)c(Cl)c2)c(OCC(F)(F)F)nn1)C1CC1 [Example 23, (E)-N-(2-cyclopropyl-2-(methoxyimino)ethyl)-5-(3,4-dichlorophenyl)-6-(2,2,2-trifluoroethoxy)pyridazine-3-carboxamide]	147 to 150	-2	14	88	540	
CO/N=C(/CNC(=O)c1cc(-c2ccc(Cl)cc2)c(O[C@@H](C)C(F)(F)F)nn1)C1CC1 [Example 25, (S,E)-5-(4-Chlorophenyl)-N-(2-cyclopropyl-2-(methoxyimino)ethyl)-6-(1,1,1-trifluoropropan-2-yloxy)pyridazine-3-carboxamide]		39	29	61		
CO/N=C1\CCCC[C@@H]1NC(=O)c1ncc(O[C@@H](C)C(F)(F)F)c(-c2ccc(Cl)cc2)n1 [Example 28, 4-(4-Chlorophenyl)-N-((S,E)-2-(methoxyimino)cyclohexyl)-5-((S)-1,1,1-trifluoropropan-2-yloxy)pyrimidine-2-carboxamide]	180 to 182	34.4	18	86.5	780	
CO/N=C1\CCCC[C@@H]1NC(=O)c1cc(-c2ccc(Cl)cc2)c(O[C@@H](C)C(F)(F)F)cn1 [Example 29, 4-(4-Chlorophenyl)-N-((S,E)-2-(methoxyimino)cyclohexyl)-5-((S)-1,1,1-trifluoropropan-2-yloxy)picolinamide]	123 to 125	35.5	33	53.4		
CO/N=C(/CNC(=O)c1cnc(O[C@@H](C)C(F)(F)F)c(-c2ccc(Cl)cc2)c1)C1CC1 [Example 31, 5-(4-Chloro-phenyl)-N-{2-cyclopropyl-2-[(E)-methoxyimino]-ethyl}-6-((S)-2,2,2-trifluoro-1-methyl-ethoxy)-nicotinamide]	103 to 106		3.6	74.5		39.3

Now from value to molecule, other results behind:

melting point [°C]	inhibition at 10 µM (human CB1 receptor; [1]) [%]	inhibition at 10 µM (human CB2 receptor) [%]	SMILES	% increase of ABCA1 at 3 μM (ABCA1 protein) [% @ 3 μM]	EC50 (ABCA1 protein) [nM]	inhibition at 10 µM (human CB1 receptor) [%]
	28.8	71.7	CO/N=C(/CNC(=O)c1ncc(OCC2CC2)c(-c2ccc(Cl)cc2)n1)C1CC1 [Example 20, 4-(4-chloro-phenyl)-5-cyclopropylmethoxy-pyrimidine-2-carboxylic acid {2-cyclopropyl-2-[(E)-methoxyimino]-ethyl}-amide]	87.03		
106 to 109	22	31	CO/N=C1\CCCC[C@@H]1NC(=O)c1cc(-c2ccc(Cl)c(Cl)c2)c(OCC(F)(F)F)nn1 [Example 24, 5-(3,4-Dichloro-phenyl)-6-(2,2,2-trifluoro-ethoxy)-pyridazine-3-carboxylic acid {(S)-2-[(E)-methoxyimino]-cyclohexyl}-amide]	85		
149 to 152	13	9	CO/N=C(/CNC(=O)c1cnc(O[C@@H](C)C(F)(F)F)c(-c2ccc(Cl)cc2)n1)C1CC1 [Example 26, (S,E)-6-(4-Chlorophenyl)-N-(2-cyclopropyl-2-(methoxyimino)ethyl)-5-(1,1,1-trifluoropropan-2-yloxy)pyrazine-2-carboxamide]	79	1120	
120 to 123	21	21	CO/N=C1\CCCC[C@@H]1NC(=O)c1cnc(O[C@@H](C)C(F)(F)F)c(-c2ccc(Cl)cc2)n1 [Example 27, 6-(4-Chlorophenyl)-N-((S,E)-2-(methoxyimino)cyclohexyl)-5-((S)-1,1,1-trifluoropropan-2-yloxy)pyrazine-2-carboxamide]	65		
119 to 121	24.1	12.7	CO/N=C1\CCCC[C@@H]1NC(=O)c1cnc(O[C@@H](C)C(F)(F)F)c(-c2ccc(Cl)cc2)c1 [Example 30, 5-(4-Chlorophenyl)-N-((S,E)-2-(methoxyimino)cyclohexyl)-6-((S)-1,1,1-trifluoropropan-2-yloxy)nicotinamide]	91.3	180	
	15	29	CO/N=C(/CNC(=O)c1cc(-c2ccc(Cl)cc2)c(OCC(F)(F)F)cn1)C1CC1 [Example 32, (E)-4-(4-chlorophenyl)-N-(2-cyclopropyl-2-(methoxyimino)ethyl)-5-(2,2,2-trifluoroethoxy)picolinamide]	53		
